Assay results reported in patent US9669030B2, “Hydantoin derivatives as Kv3 inhibitors” (AUTIFONY THERAPEUTICS LIMITED, priority 2012, dated 2017).

System: chinchilla model of acute noise-induced hearing loss
Experiment: chinchilla model of acute noise-induced hearing loss, auditory brainstem response thresholds
Assay type: in vivo
Details: 60 mg/kg intraperitoneal, doses 12 hours apart, five pre- and five post-noise, 105 dB SPL noise centered at 4 kHz for 6 hours, 21 days after noise exposure, 2, 4, 6, 8 kHz, p<0.01
From the text: The otoprotective efficacy (i.e. the ability to prevent or reduce the development of permanent acute noise-induced hearing loss) of an exemplary Kv3 modulator, Example 64 described within WO2011069951A1 ((5R)-5-ethyl-5-methyl-3-[2-({4-methyl-3-[(trifluoromethyl)oxy]phenyl}oxy)-5-pyrimidinyl]-2,4-imidazolidinedione), referred to herein as “COMPOUND X”, was investigated using a chinchilla model of acute noise-induced hearing loss, as follows:
Subjects comprised male, 3 year old chinchillas (Laniger), 10 animals per group. Chinchillas were housed in the study facility for a minimum of 5 days prior to noise exposure. Food and water were available ad libitum. Animals were maintained at 21° C. on a 12/12 light/dark cycle. […]
Auditory brainstem responses (ABRs) were collected prior to noise exposure and 21 days after noise exposure. […] Thresholds were measured in response to tone-bursts with 1 ms rise/fall and a 0 ms plateau gated by a Blackman envelope and centred at the frequencies of 2, 4, 6 and 8 kHz, presented at 30/s. […]
The thresholds for ABRs at the four different sound frequencies at day 21 post-noise exposure were compared to the thresholds at baseline, prior to noise exposure in order to determine a threshold shift for each animal. The data were then analysed using a 2-way ANOVA, with treatment and frequency as main factors.

In the case of `CC[C@@]1(C)NC(=O)N(c2cnc(Oc3ccc(C)c(OC(F)(F)F)c3)nc2)C1=O` [COMPOUND X, (5R)-5-ethyl-5-methyl-3-[2-({4-methyl-3-[(trifluoromethyl)oxy]phenyl}oxy)-5-pyrimidinyl]-2,4-imidazolidinedione], the “permanent threshold shift in ABRs” value is reported as “significantly reduced”.
